Assay: xn = mol fraction of the nth substance listed
Conditions: 101.3 kPa

CC[n+]1ccn(C)c1.O=S(=O)([N-]S(=O)(=O)C(F)(F)F)C(F)(F)F + CCCOCCO
speed of sound (298.15 K, x1 = 1): 1239.6 m/s
speed of sound (303.15 K, x1 = 1): 1228.7 m/s
speed of sound (308.15 K, x1 = 1): 1218.2 m/s
speed of sound (313.15 K, x1 = 1): 1207.3 m/s
speed of sound (318.15 K, x1 = 1): 1196.8 m/s

CCCOCCO + CC[n+]1ccn(C)c1.O=S(=O)([N-]S(=O)(=O)C(F)(F)F)C(F)(F)F
speed of sound (298.15 K, x2 = 0.0479): 1290.9 m/s
speed of sound (298.15 K, x2 = 0.0964): 1283.5 m/s
speed of sound (298.15 K, x2 = 0.1514): 1278 m/s
speed of sound (298.15 K, x2 = 0.2034): 1273.8 m/s
speed of sound (298.15 K, x2 = 0.2917): 1268 m/s
speed of sound (298.15 K, x2 = 0.3883): 1263.2 m/s
speed of sound (298.15 K, x2 = 0.4926): 1258.1 m/s
speed of sound (298.15 K, x2 = 0.5974): 1252.8 m/s
speed of sound (298.15 K, x2 = 0.6927): 1248 m/s
speed of sound (298.15 K, x2 = 0.8253): 1241.9 m/s
speed of sound (298.15 K, x2 = 0.8945): 1240.7 m/s
speed of sound (298.15 K, x2 = 0.9518): 1239.7 m/s
speed of sound (303.15 K, x2 = 0.0479): 1275.1 m/s
speed of sound (303.15 K, x2 = 0.1514): 1264.2 m/s
speed of sound (303.15 K, x2 = 0.2917): 1255 m/s
speed of sound (303.15 K, x2 = 0.3883): 1250.6 m/s
speed of sound (303.15 K, x2 = 0.5974): 1240.9 m/s
speed of sound (303.15 K, x2 = 0.6927): 1236.4 m/s
speed of sound (303.15 K, x2 = 0.7631): 1232.8 m/s
speed of sound (303.15 K, x2 = 0.8253): 1230.8 m/s
speed of sound (303.15 K, x2 = 0.9518): 1229.2 m/s
speed of sound (308.15 K, x2 = 0.0964): 1253.7 m/s
speed of sound (308.15 K, x2 = 0.1514): 1249.6 m/s
speed of sound (308.15 K, x2 = 0.2034): 1245.7 m/s
speed of sound (308.15 K, x2 = 0.2917): 1241.1 m/s
speed of sound (308.15 K, x2 = 0.3883): 1237 m/s
speed of sound (308.15 K, x2 = 0.4926): 1233.3 m/s
speed of sound (308.15 K, x2 = 0.5974): 1229.2 m/s
speed of sound (308.15 K, x2 = 0.6927): 1225 m/s
speed of sound (308.15 K, x2 = 0.7631): 1222 m/s
speed of sound (308.15 K, x2 = 0.8253): 1220.5 m/s
speed of sound (308.15 K, x2 = 0.8945): 1219.2 m/s
speed of sound (308.15 K, x2 = 0.9518): 1218.8 m/s
speed of sound (313.15 K, x2 = 0.0479): 1243.4 m/s
speed of sound (313.15 K, x2 = 0.0964): 1238.8 m/s
speed of sound (313.15 K, x2 = 0.1514): 1234.5 m/s
speed of sound (313.15 K, x2 = 0.3883): 1223.4 m/s
speed of sound (313.15 K, x2 = 0.4926): 1220.8 m/s
speed of sound (313.15 K, x2 = 0.5974): 1217.1 m/s
speed of sound (313.15 K, x2 = 0.6927): 1214 m/s
speed of sound (313.15 K, x2 = 0.7631): 1211.3 m/s
speed of sound (313.15 K, x2 = 0.8253): 1209.8 m/s
speed of sound (313.15 K, x2 = 0.8945): 1208.4 m/s
speed of sound (313.15 K, x2 = 0.9518): 1207.7 m/s
speed of sound (318.15 K, x2 = 0.0479): 1228.5 m/s
speed of sound (318.15 K, x2 = 0.1514): 1220.2 m/s
speed of sound (318.15 K, x2 = 0.4926): 1208.4 m/s
speed of sound (318.15 K, x2 = 0.5974): 1205.2 m/s
speed of sound (318.15 K, x2 = 0.6927): 1202.8 m/s
speed of sound (318.15 K, x2 = 0.7631): 1200.3 m/s
speed of sound (318.15 K, x2 = 0.8253): 1199.5 m/s
speed of sound (318.15 K, x2 = 0.8945): 1198.4 m/s
speed of sound (318.15 K, x2 = 0.9518): 1198 m/s

From a compilation of properties of binary mixtures (doi:10.1021/acs.jced.0c00138)
